Source: article PMC7261172, “Peptides containing the PCNA interacting motif APIM bind to the β-clamp and inhibit bacterial growth and mutagenesis” (Nucleic Acids Research, 2020)

Columns and labels:
E. coli MG1655 [1] = assay: Rif^R mutagenicity assay, added cell penetrating peptides; format: cell-based, Escherichia coli; conditions: spontaneous; for Mutation frequency, added peptides: E. coli MG1655, cell penetrating peptide 20 μM, average ± SEM, RWLVK n = 11, RFSLK n = 4, RWLK n = 7, R11 n = 5, control 10.5 ± 2.2
Method: (§1) The rifampicin resistance (Rif^R) mutagenicity assay was performed as described in ([50]) with some modifications. Briefly, E. coli BL21 expressing peptide variants were induced with (IPTG) (1 mM) at OD600 = 0.3–0.4 and cultured at 37°C, for 2 h before harvested. Bacteria from large culture volumes (up to 50 ml) were plated in order to obtain ∼100 Rif^R colonies per dish. The anti-mutagenic effect of cell penetrating APIM-peptides in E. coli MG1655 was done by adding 20 μM peptide at OD600 = 0.01, and the cells were cultured for 30 min. Next, the cells were pelleted and washed with PBS before UV-irradiated in (50 μl) PBS (2 mJ UVC/cm^2), re-suspended in 2.5 ml LB and cultured in 37°C for 2 h before plating on LB plates with and without Rif (100 μg/ml). The number of Rif^R colonies/ total CFU was determined after 1 and 2 days, respectively. Significance was calculated by using a two-tailed, paired, students t-test. Gentamicin resistance (Gen^R) was examined using a gentamicin sensitive clinical isolate of S. epidermidis. […] The cultures were grown in a shaking incubator (37°C) and were re-inoculated (1:100) every 24 h in fresh TSB and supplements. The cultures were plated on blood agar plates with and without gentamicin (10 mg/l) every day for 4 days, and the frequency of Gen^R colonies was determined by calculating the number of Gen^R colonies/total CFU.

S.epidermidis (MRSE) = format: cell-based, Staphylococcus epidermidis; conditions: 24 h
Method: (§2) Briefly, bacterial suspension in Mueller-Hinton Broth was adjusted to 0.5 McFarland and diluted to 5 × 10^5 CFU/ml. The suspension (0.1 ml) was seeded in polypropylene microtiter plates (Greiner), 5 × 10^4 CFU/well. APIM-peptides were added as 10% of the total volume. Initial inoculums were quantified by seeding on agar for verification of the estimated CFU/mL. After 24 hours (h) incubation at 37°C, the microtiter plates were inspected for visible growth.

[2] = tested on: clinical isolates of multidrug-resistant S. epidermidis; assay: Inhibition of growth (OD600) of clinical isolates; format: cell-based, Staphylococcus epidermidis; conditions: most sensitive clinical isolate (isolate 1); same molar concentration as the full-length RWLVK-peptide; Figure 1B
Method: Growth experiments were performed in Luria-Bertani broth (LB) media, Tryptic soy broth (TSB) or LB agar at 37°C, antibiotic selections were performed using the following concentrations: kanamycin 30 μg/ml, chloramphenicol 34 μg/ml and rifampicin 100 μg/ml.

E. coli BL21 = format: cell-based, Escherichia coli; conditions: Mueller-Hinton Broth, 5 × 10^5 CFU/ml, 24 h, 37°C; average of ≥3 independent biological experiments
Method: as §2

E. coli MG1655 [3] = format: cell-based, Escherichia coli; conditions: Mueller-Hinton Broth, 5 × 10^5 CFU/ml, 24 h, 37°C; average of ≥3 independent biological experiments
Method: as §2

E. coli MG1655 cells = assay: Replication assay (flow cytometry of DNA content, Rif/Cpx run-out); format: cell-based, Escherichia coli; conditions: up to 15 μM peptide (above MIC), then Rif and Cpx run-out
Method: E. coli MG1655 cells were grown at 37°C in glucose-CAA medium (AB minimal medium ([46]) supplemented with 10 μg/ml thiamine, 0.2% glucose and 0.5% casamino acids) for several generations to ensure balanced growth. At an OD600 = 0.15, the cells were added 2, 4 or 6 μM RWLVK* peptide or 2, 4, 6 or 15 μM R11 peptide. Growth was continued for 2–5 min. After peptide treatment, cells were either harvested directly or treated with rifampicin (Rif) (300 μg/ml) and cephalexin (Cpx) (10 μg/ml) for the time equivalent of three to four generations before harvesting. Both directly harvested and Rif and Cpx treated cells were re-suspended in TE buffer (10 mM Tris–HCl, pH 8.0, 1 mM EDTA, pH 8.0) and fixed in 70% ethanol. Fluorescein isothiocyanate (FITC, Sigma-Aldrich) ([47]) was used for protein staining (representing mass), and Hoechst 33258 was used for DNA staining (Sigma-Aldrich) ([48]). Flow cytometry was performed with an LSR-II flow cytometer equipped with a 488 nm argon-ion laser and a 355 nm krypton laser (BD Biosciences), and the results were analyzed using FlowJo software (Tree Star, Inc.). Rif and Cpx inhibit the initiation of replication and cell division, respectively. Cells cannot initiate a new round of replication after these drugs are added but can complete ongoing rounds of replication (without dividing). […]

E.coli β-clamp = target: T1, E.coli β-clamp (Escherichia coli, UniProt P0A988); assay: Microscale thermophoresis (MST) β-clamp binding; conditions: cell penetrating peptides, MST buffer with 2% fetal bovine serum, initial in vitro binding experiments, bounds given
T1 construct: made in house
Method: Purified E.coli β-clamp ([49]) was labeled using the RED-Maleimide Labelling Kit (NanoTemper Technologies, GmbH) according to the manufacturer's instructions applying a concentration of 20 μM protein at room temperature. The ligands, cell penetrating APIM-peptides, were dissolved and diluted in supplemented Microscale thermophoresis (MST) buffer (50 mM Tris–HCl pH 7.5, 150 mM NaCl, 10 mM MgCl2) with 2% fetal bovine serum and incubated for 10 min in room temperature. Series of 1:1 dilutions (16×), producing ligand concentrations ranging from 500 μM to 15 nM, were made. Each ligand solution was further diluted 1:1 with fluorescent labeled β-clamp (diluted in MST buffer, 3 nM) and incubated for 10 min. Fluorescence was measured for each protein-ligand sample using a Monolith NT.115 instrument (20% MST power and 100% LED power) and Monolith NT Standard Treated Capillaries (both NanoTemper Technologies, GmbH). To calculate the KD’s, fluorescence signals were plotted and analyzed using the supplemented software (NT Analysis software version 1.5.41 and MO.affinity analysis version 2.2.4, NanoTemper Technologies). Denaturation with SD-buffer (4% sodium dodecyl sulphate and 40 mM DTT) and re-measurement of total fluorescence confirmed that the observed change in fluorescence was due to ligand binding event.

MRSA 43484 = assay: Murine skin wound infection model; conditions: topical
Method: The experimental procedure is modified from a previously described skin infection model in mice ([52]). A total of 32 Balb/C female mice (18–22 g, Taconic, Denmark) were used for the experiment. The mice were treated orally with analgesia, 45 μl Nurofen®junior (Novartis 20 mg/ml ∼30 mg/kg), 30–60 min before the experiment. The mice were anesthetized with 0.15 ml diluted Zoletil mix (2 ml Zoletil mix + 5.2 ml sterile saline + 2.8 ml Torbugesix 1:100) before the fur was removed on a 2 × 3 cm area of the back with an electric shaver and a razor. At last, a skin lesion was made on each mouse with a dermal curette (Miltex 335710). A total of 10 μl inoculum containing 10^7 CFU MRSA 43484 (in saline) was added to a 1 cm^2 area of the skin lesion of each mouse. One group of animals (six mice) were sacrificed 1 day after inoculation, before any treatment was given, to quantify the inoculum. The remaining mice were given topical treatment twice a day (9 a.m and 3 p.m) for 3 days; APIM-peptide (RFSLK, Innovagen SE, 12.8 mg/ml in 1% methyl cellulose gel containing 10% glycerol) or Fusidic acid 2% ointment (LeoPharma). A volume of 50 μl was used for each treatment, spread out on the skin lesion. […] The treated animals and the control group were sacrificed on day 4, one day after the last treatment. […]

[4] = tested on: gentamicin sensitive clinical isolate of S. epidermidis; assay: Gentamicin resistance (Gen^R) mutation frequency assay; format: cell-based, Staphylococcus epidermidis; conditions: peptide 3 μM, 4 days, daily re-inoculation 1:100 in TSB, n≥ 4; Figure 4B
Method: as §1

T1 sequence (P0A988 whole entry): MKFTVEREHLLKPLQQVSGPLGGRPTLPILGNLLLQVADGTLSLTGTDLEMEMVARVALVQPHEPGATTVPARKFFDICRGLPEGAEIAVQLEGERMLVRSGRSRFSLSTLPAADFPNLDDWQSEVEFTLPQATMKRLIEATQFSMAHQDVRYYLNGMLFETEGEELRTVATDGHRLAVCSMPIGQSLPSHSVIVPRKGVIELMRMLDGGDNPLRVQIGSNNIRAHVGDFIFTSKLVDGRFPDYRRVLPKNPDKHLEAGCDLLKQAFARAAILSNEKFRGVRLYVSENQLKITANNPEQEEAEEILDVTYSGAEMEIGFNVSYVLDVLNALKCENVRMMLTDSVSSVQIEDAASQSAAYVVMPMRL

## N=C(N)NCCC[C@H](NC(=O)[C@H](CCCNC(=N)N)NC(=O)[C@H](CCCNC(=N)N)NC(=O)[C@H](CCCNC(=N)N)NC(=O)[C@H](CCCNC(=N)N)NC(=O)[C@H](CCCNC(=N)N)NC(=O)[C@H](CCCNC(=N)N)NC(=O)[C@H](CCCNC(=N)N)NC(=O)[C@H](CCCNC(=N)N)NC(=O)[C@H](CCCNC(=N)N)NC(=O)[C@@H](N)CCCNC(=N)N)C(N)=O [R11, reference compound]
E. coli MG1655 [1]; E. coli MG1655, 20 μM
  Effect of added cell penetrating peptide on the mutation frequency: did not affect the mutation frequency
E. coli MG1655 [1]
  Mutation frequency, added peptides: 7.2 ± 3.9 Rif^R/10^8 CFU
S.epidermidis (MRSE)
  Minimal Inhibitory Concentration (MIC) S.epidermidis (MRSE): 12 µM
[2]
  Inhibition of growth (OD600), % of untreated parallel: no effect
E. coli BL21
  Minimal Inhibitory Concentration (MIC) E. coli BL21: 11 µM
E. coli MG1655 [3]
  Minimal Inhibitory Concentration (MIC) E. coli MG1655: 14.5 µM
E. coli MG1655 cells
  Inhibition of DNA replication: did not have any effect
E.coli β-clamp
  KD for the β-clamp (MST): no binding was detected

## Ac-MDRFSLKWKKKRKIRRRRRRRRRRR-NH2 [RFSLK]
E. coli MG1655 [1]
  Mutation frequency, added peptides: 4.1 ± 1.6 * Rif^R/10^8 CFU
S.epidermidis (MRSE)
  Minimal Inhibitory Concentration (MIC) S.epidermidis (MRSE): 3 µM
E. coli BL21
  Minimal Inhibitory Concentration (MIC) E. coli BL21: 4 µM
E. coli MG1655 [3]
  Minimal Inhibitory Concentration (MIC) E. coli MG1655: 7.5 µM
MRSA 43484; 50 μl twice a day for 3 days, 12.8 mg/ml (3.5 mM) in 1% methyl cellulose gel with 10% glycerol, compared to controls, Figure 5
  Bacterial load in the infected lesions (CFU/skin lesion) on day 4: significantly reduced the bacterial load
MRSA 43484; twice a day for 3 days, mice
  Toxicity of the APIM-peptide gel: no toxicity
E.coli β-clamp; read-out: KD for the β-clamp (MST)
  Kd: < 50 µM
[4]
  Mutation frequency (Gen^R/10^8 CFU) compared to the control, peptide alone: did not change the mutation frequency
